The values below come from patent US20090005659A1, “Tissue Ablation by Shear Force for Sampling Biological Fluids and Delivering Active Agents” (priority 2000, published 2009).

For data set [1], the system named is female Yorkshire pigs. The data set is described as follows: Transdermal delivery of insulin by passive diffusion following shear perforation of the skin. The format is in vivo, pig. How it is done:
Two female Yorkshire pigs of the same body weight range as those in Example 2 were immobilized with anesthetics. The test site on the side of the chest was prepared by clipping lightly off the hair and cleaning with an alcohol wipe. Special care was taken not to damage the skin. Shear perforation of the pig skin was performed with a Remington shaver (Remington Microscreen 1®, Remington, Bridgeport, Conn., USA) by pressing its screen firmly on the skin for about 1 second. This procedure was repeated at an adjacent skin site until 10 cm^2 of the skin was shear-perforated. Only slight erythema was observed on the test site. A drug reservoir patch made of silicone rubber (Silastic® Sheet, Medical Grade, Dow Corning Corp., Midland, Mich., USA) was affixed to the test skin with silicone adhesive (Secure® Adhesive, BT-401, Factor II, Inc., Lakeside, Ariz., USA). […] The thickness of the drug reservoir was 0.5 mm. An insulin solution (0.5 ml, Regular Iletin® II, Insulin Injection, USP, Purified Pork, Eli Lilly and Company, Indianapolis, Ind., USA) was placed into the drug reservoir which covered the shear-perforated skin to allow insulin molecules to enter the pig body through the pores on the stratum corneum driven by insulin concentration gradient. Transdermal insulin delivery was conducted in this way for 50 minutes. Insulin delivery was then terminated by removing the insulin patch. Blood samples were taken from the pigs prior to, during, and after transdermal insulin delivery for determination of blood glucose and insulin concentrations.

In data set [2] the test system is intact skin of human and swine. Kind of data set: Penetration of insulin into intact skin (own experiment, result not shown). The class given is in vivo. Particulars: no shear perforation. From the text:
The stratum corneum is recognized as the primary barrier to percutaneous absorption of drug applied to the skin surface. The densely structured outmost skin layer consisting of flattened and keratinized dead skin cells provides a formidable permeation barrier to most small and virtually all large compounds. […] Our own experiment confirmed this (result not shown). This example investigates in vivo transdermal delivery of insulin into swine following application of shear perforation to remove the stratum corneum barrier at the test site.

A further data set deals with pigs. Kind of data set: Swine glucose monitoring study: subcutaneous fast-acting insulin, blood glucose. The class given is in vivo, pig. The settings on record: 2 IU subcutaneous, four pigs. How it is done: A swine study was conducted for glucose measurements in both capillary blood and ISF extracted from the micropores generated by the shear perforation procedure as described in Example 3. Briefly, subcutaneous injections of fast-acting insulin (2 IU, Regular Iletin® II, U-100, Pork, Eli Lilly, Indianapolis, Ind.) were administered to four pigs. […] Glucose changes in the blood were monitored periodically using One Touch® Basic glucose meter (LifeScan, Inc., Milpitas, Calif.) on blood samples from the ear vein. ISF samples were obtained by application of a weak suction to the micropores on the skin with an Asoivenin® suction device (ASPIR, Sannois, France). The ISF samples collected throughout the whole experiment were tested for glucose using both a FastTake® and One Touch® Basic glucose meter blood glucose meters (LifeScan, Inc., Milpitas, Calif.) as wells as an YSI glucose analyzer (Model 2700 Select Biochemistry Analyzer, YSI Inc., Yellow Springs, Ohio). A calibration procedure was conducted for the two home-use glucose meters (i.e., the One Touch® and FastTake® meters) against the YSI glucose analyzer using aqueous glucose solutions of various concentrations.

Data set [3] has as its system female Yorkshire pigs. The data set is described as follows: Subcutaneous injection of insulin (control experiment): blood glucose and plasma insulin profiles. The format is in vivo, pig. The settings on record: four pigs. From the text: The subcutaneous administration of insulin provides a dose response to which a comparative measure of transdermally delivered insulin can be made. An insulin dose of 5 IU insulin (Regular Iletin® II, Insulin Injection, USP, Purified Pork, Eli Lilly and Company, Indianapolis, Ind., USA) was subcutaneously injected in the rear mid-ventral area of each of four female Yorkshire pigs (weight: 22-26 kg) with a 1 cc Sub-Q Precision Glide® Needle (Becton-Dickinson and Company, Franklin Lakes, N.J., USA).
As the insulin concentrations went back to its basal concentration (FIG. 5b), the blood glucose concentrations also were gradually returned toward its pre-insulin injection level (FIG. 5a).

Several values for one entry are separate records, joined by “and”; a condition that tells them apart may be missing. Equal entries are not always repeated.

insulin: the blood glucose result with female Yorkshire pigs [1] (0.5 ml insulin solution patch over 10 cm^2 shear-perforated skin, 50 minutes, two pigs, FIG. 6a) was “Drastic reduction in the blood glucose”. Moreover, the “time for blood glucose concentrations to return to a near normal level” value in the data set with female Yorkshire pigs [1] (transdermal insulin over shear-perforated skin, 50 minutes delivery, two pigs) is reported as “about 5 hours”. Moreover, in the data set on female Yorkshire pigs [1] (transdermal, shear-perforated skin 10 cm^2, one value per pig, FIG. 6b), the “peak plasma insulin concentrations” value was 50 μIU/ml and 90 μIU/ml. Moreover, the “time of peak plasma insulin concentration” value in the data set with female Yorkshire pigs [1] (transdermal, shear-perforated skin, peak at the end of delivery) came out at 50 min. In addition, in data set [2], the “penetration into intact skin” value is reported as “cannot penetrate into the intact skin”. The blood glucose concentration entry with pigs is recorded as “significant reduction in the blood glucose concentration”; in the data set on female Yorkshire pigs [3] (5 IU insulin subcutaneous, FIG. 5a), “rapid reduction in blood glucose concentration”. In the data set with female Yorkshire pigs [3] (5 IU insulin subcutaneous injection, plasma, FIG. 5b), the peak insulin concentrations is 31-55 μIU/ml.
